Consider ten molecules from publication PMC5021161 (Environmental and Molecular Mutagenesis, 2016).

Molecules are shown by their SMILES. Read-outs that look alike come from different tables or passages of the source. Some results are limits rather than exact numbers.

Data set [1] concerns TK6 cells. The following applies: for % MN: 2% Aroclor S9.
Data set [2] has as its system TGx‐28.65 biomarker genes. The settings on record: for Dendogram TGx‐28.65 / NSC TGx‐28.65 / PCA TGx‐28.65: 2% Aroclor S9, 4 hr + 3-4 hr recovery.
Data set [3] relates to TK6 cells. The settings on record: 2% Aroclor S9, 4 hr + 20 hr recovery.
The test system of data set [4] is TK6 cells. The settings on record: 2% Aroclor S9, 4 hr + 20 hr recovery. This is another data set of the same source.
Data set [5] relates to ATF3. It is filed as cell-based, human. The settings on record: 2% Aroclor S9, 4 hr + 3-4 hr recovery.
For data set [6], the system named is CDKN1A. It is filed as cell-based, human.
For data set [7], the system named is GADD45A. It is filed as cell-based, human.
For data set [8], the system named is TGx‐28.65 biomarker genes. The following applies: 2015, cited from earlier work; for Dendogram TGx‐28.65 / NSC TGx‐28.65 / PCA TGx‐28.65: 1% BF/PB S9.
In data set [9] the test system is TK6 cells. The settings on record: 1% BF/PB S9, ref Buick et al., 2015, cited from earlier work.
[10] abbreviates: 2 μg/ml, 2% Aroclor S9, 4 hr + 3-4 hr recovery.
[11] abbreviates: 1 μg/ml, 2% Aroclor S9, 4 hr + 3-4 hr recovery.
[12] abbreviates: 20 μg/ml, 2% Aroclor S9, 4 hr + 3-4 hr recovery.
The mark [13] stands for this setting: 280 μg/ml, 2% Aroclor S9, 4 hr + 3-4 hr recovery.

Take `O=P1(N(CCCl)CCCl)NCCCO1` (stereo not shown) [Cyclophosphamide]: in [1] (human), the “fold increase in % MN above vehicle + S9 control” value was 8 fold.
As to `c1ccc2c(c1)ccc1ccccc12` [Phenanthrene], the “Dendogram TGx‐28.65” value in data set [2] (8 μg/ml), in data set [2] (40 μg/ml) and in data set [2] (100 μg/ml) was “−” throughout. Further, the “NSC TGx‐28.65” value in data set [2] (8 μg/ml), in data set [2] (40 μg/ml) and in [2] (100 μg/ml) was “−” in each case. In addition, the “PCA TGx‐28.65” value in [2] (8 μg/ml), in data set [2] (40 μg/ml) and in data set [2] (100 μg/ml) was “−” in each case. In addition, the “% Apoptotic cells” value is 10.60% in data set [3] (8 μg/ml), 14.71% in data set [3] (40 μg/ml) and 26.73% in data set [3] (100 μg/ml). Also, the “% Relative Survival” value is on record as 94.13% in data set [4] (8 μg/ml); 65.32% in data set [4] (40 μg/ml); 38.91% in data set [4] (100 μg/ml); about 40% in [4] (100 μg/ml, listed as phenanthrene). The “increase in % MN” value in [1] is “no significant increase”.
As to `Nc1ccc2cc3ccccc3cc2c1` [2‐Aminoanthracene], the “ATF3 fold change vs vehicle control (+S9)” value in data set [5] (2 μg/ml) turned out to be 2.3 fold change. Also, in data set [2] (2 μg/ml), the “Dendogram TGx‐28.65” value is given as “+”, the “NSC TGx‐28.65” value was “+” and the “PCA TGx‐28.65” value is given as “+”. The “probability of being genotoxic (NSC, TGx‐28.65)” value in data set [2] (all concentrations) is over 0.9. The “classification using TGx‐28.65” value in data set [2] (mid and high concentrations) was “genotoxic”. Further, in data set [6] (setting [10]), the “CDKN1A fold change vs vehicle control (+S9)” value (shortened to “CDKN1A fold change”) turned out to be 4.6 fold change. The “% Apoptotic cells” value in data set [3] (2 μg/ml) amounted to 18.48%. Moreover, in data set [4] (2 μg/ml), the “% Relative Survival” value is 46.78%. Also, the “% Relative Survival” value in data set [4] (2 μg/ml, listed as 2‐aminoanthracene) is reported as 47%. The “% MN” value in data set [1] (2 μg/ml, 4 hr + 20 hr recovery) was found to be 1.22%. Moreover, the “fold increase in % MN above vehicle + S9 control” value in data set [1] (high concentration, definitive study, 4 hr + 20 hr recovery) is reported as 1.8 fold. Also, the “GADD45A fold change vs vehicle control (+S9)” value (from here on “GADD45A fold change”) in data set [7] (setting [10]) was determined as 1.7 fold change.
As to `c1ccc2c(c1)ccc1cc3c(ccc4ccccc43)cc12` [Dibenz[a,h]anthracene], the “ATF3 fold change vs vehicle control (+S9)” value in [5] (1 μg/ml) came to 1.1 fold change; in [5] (20 μg/ml), 1.6 fold change; in data set [5] (280 μg/ml), 2.3 fold change. The “Dendogram TGx‐28.65” value in data set [2] (1 μg/ml), in [2] (20 μg/ml) and in data set [2] (280 μg/ml) was “+” throughout. Further, the “NSC TGx‐28.65” value in data set [2] (1 μg/ml) is given as “−”; in [2] (20 μg/ml), “+”; in [2] (280 μg/ml) it was “+”. The “PCA TGx‐28.65” value in [2] (1 μg/ml) is reported as “−”; in data set [2] (20 μg/ml) it was “+”; in data set [2] (280 μg/ml), “+”. Moreover, the “classification using TGx‐28.65” value in data set [2] (low concentrations) is listed as “non‐genotoxic”; in data set [2] (mid and high concentrations), “genotoxic”. Moreover, the “classification by hierarchical cluster analysis (TGx‐28.65 genes)” value in data set [2] (lowest concentration) is recorded as “genotoxic”. The “CDKN1A fold change” value in data set [6] (setting [11]) was 1.2 fold change; in data set [6] (setting [12]), 2.4 fold change; in [6] (setting [13]) it was 4.2 fold change. Besides, the figures for the “% Apoptotic cells” value in data set [3] (1 μg/ml), in data set [3] (20 μg/ml) and in data set [3] (280 μg/ml) were 9.74%, 16.82% and 31.79%, respectively. Moreover, the entries for the “% Relative Survival” value in data set [4] (1 μg/ml), in data set [4] (20 μg/ml) and in data set [4] (280 μg/ml) were 97.79%, 64.12% and 53.91%, respectively. Besides, the “% MN” value in data set [1] (1 μg/ml, 4 hr + 20 hr recovery) is reported as 2.16%; in [1] (20 μg/ml, 4 hr + 20 hr recovery) it was 3.42%; in data set [1] (280 μg/ml, 4 hr + 20 hr recovery) it was 3.80%. In addition, the “statistically significant % MN increase relative to controls” value in data set [1] (for at least one concentration, definitive study) is listed as “over twofold”. Besides, the “GADD45A fold change” value in data set [7] (setting [11]) was 1.2 fold change; in [7] (setting [12]) it was 1.7 fold change; in [7] (setting [13]), 2.0 fold change.
As to `OC[C@H]1O[C@@](CO)(O[C@H]2O[C@H](CO)[C@@H](O)[C@H](O)[C@H]2O)[C@@H](O)[C@@H]1O` [Sucrose], the “Dendogram TGx‐28.65” value in data set [2] (1 mM) and in data set [2] (10 mM) was “−” throughout. The “NSC TGx‐28.65” value in data set [2] (1 mM) and in data set [2] (10 mM) was “−” in each case. Further, the “PCA TGx‐28.65” value in [2] (1 mM) and in [2] (10 mM) was “−” in each case. For the same molecule, in [6], the “CDKN1A fold change” value is 0.4 fold change. In addition, the “% Apoptotic cells” value is reported as 8.98% in [3] (1 mM) and 9.75% in data set [3] (10 mM). Moreover, the “% Relative Survival” value in data set [4] (1 mM) was determined as 95.04%; in data set [4] (10 mM), 90.93%. For the same molecule, the “% MN” value in data set [1] (1 mM, 4 hr + 20 hr recovery) amounted to 0.94%; in [1] (10 mM, 4 hr + 20 hr recovery), 0.97%. For the same molecule, the “increase in % MN” value in data set [1] (definitive study, 2% Aroclor‐induced S9) is given as “no significant increase”. Besides, in [7], the “GADD45A fold change” value worked out at 0.8 fold change.
Turning to `CC(=O)Nc1ccc(O)cc1` [Acetaminophen], in [1] (human), the “concentration range in which toxic effects are observed” value lay in the range of 3000 to 10000 µM.
With `CC(C)OS(C)(=O)=O` [isopropyl methanesulfonate], the “classification using TGx‐28.65” value in [8] (TK6 cells, biomarker development study, ref Li et al.) is “genotoxic”.
Consider `C[C@@H]1C[C@H]2[C@@H]3CCC4=CC(=O)C=C[C@]4(C)[C@@]3(F)[C@@H](O)C[C@]2(C)[C@@]1(O)C(=O)CO` [Dexamethasone], for which the “Dendogram TGx‐28.65” value in data set [8] (0.63 mM, ref Buick et al.) was “−”; in data set [8] (1 mM, ref Buick et al.), “−”. For the same molecule, the “NSC TGx‐28.65” value is on record as “−” in data set [8] (0.63 mM, ref Buick et al.) and “−” in data set [8] (1 mM, ref Buick et al.). For the same molecule, the “PCA TGx‐28.65” value is “−” in data set [8] (0.63 mM, ref Buick et al.) and “−” in data set [8] (1 mM, ref Buick et al.). The “% Apoptotic cells” value in data set [9] (0.63 mM) is 5.5%; in data set [9] (1 mM) it was 12.2%.
Regarding `N.N.[Cl][Pt][Cl]` [cisplatin], the “classification using TGx‐28.65” value in data set [8] (in the presence and absence of S9, ref Buick et al.) is “accurately classified the genotoxicity”.
As for `O=[N+]([O-])c1ccc2c(c1)Cc1ccccc1-2` [2‐Nitrofluorene], the “Dendogram TGx‐28.65” value in [2] (10 μM), in data set [2] (50 μM) and in data set [2] (300 μM) was “−” in each case. The “NSC TGx‐28.65” value is reported as “−” in [2] (10 μM), “+” in [2] (50 μM) and “+” in data set [2] (300 μM). Moreover, the “PCA TGx‐28.65” value is listed as “−” in data set [2] (10 μM), “+” in [2] (50 μM) and “+” in [2] (300 μM). In addition, the “classification by hierarchical cluster analysis (TGx‐28.65 genes)” value in data set [2] (all concentrations) was “non‐genotoxic”. Further, the “classification using TGx‐28.65” value is “non‐genotoxic” in data set [2] (low concentrations); “genotoxic” in data set [2] (mid and high concentrations). Further, the “% Apoptotic cells” value in data set [3] (10 μM) is reported as 9.84%; in data set [3] (50 μM) it was 12.62%; in data set [3] (300 μM), 20.43%. Also, the “% MN” value in data set [1] (10 μM, 4 hr + 20 hr recovery) came out at 1.48%; in data set [1] (50 μM, 4 hr + 20 hr recovery), 2.23%; in [1] (300 μM, 4 hr + 20 hr recovery), 3.13%.
